Among the test systems are SF-268; A549; SK-MEL-2; PC-3; SW-620; NCI-H460; LOX IMVI; HCT-15; RPMI-8226; NCI/ADR-RES; SK-MEL-5; RXF 393; IGROV-1; MDA-MB-231; UO-31; K562; A498; OVCAR-5; MCF7.
Assay in all cases: DTP human tumour cell line panel, 48 h

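Growth conditions: 96-well plates. Treatment: test compound, 48 hours, 5 concentrations. Analysis: linear interpolation between bracketing concentrations; unreached endpoints set to highest concentration. At the GI50, growth is halved.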 The source made the active and inactive calls. No stated cut-off is given here; in the data, active = GI50 up to about 1.1 µM and inactive = higher.

On to `N#Cc1c(C#N)c(SSc2c(C#N)c(C#N)c(N)n2-c2ccccc2)n(-c2ccccc2)c1N`, for which the GI50 is 27.7 µM (inactive) with SF-268; 36 µM (inactive) with A549; 21.1 µM (inactive) in the experiment on SK-MEL-2; 20.9 µM (inactive) in the experiment on PC-3; 1.77 µM (inactive) in the experiment with SW-620; 30.6 µM (inactive) with NCI-H460. Further, the GI50 in the experiment with LOX IMVI is 86.7 µM (inactive); with HCT-15, 2.77 µM; with RPMI-8226, 2.78 µM (inactive); in the experiment on NCI/ADR-RES, 33.8 µM (inactive); with SK-MEL-5 it was 6.22 µM (inactive); with RXF 393 it was 18.3 µM (inactive). Moreover, the GI50 is 28.4 µM (inactive) with IGROV-1; 40.9 µM (inactive) with MDA-MB-231; 1.91 µM (inactive) in the experiment on UO-31; 4.38 µM (inactive) with K562; 20.7 µM (inactive) with A498; 36.4 µM (inactive) in the experiment on OVCAR-5. In the experiment with MCF7, the GI50 was 2.39 µM (inactive).
For the compound `COc1nc(OC)nc(-c2cccc(F)c2)n1`, the GI50 in the experiment on SF-268 is 14 µM (inactive); with A549 it was 17.1 µM (inactive); in the experiment with SK-MEL-2 it was 18.8 µM (inactive); with PC-3, 19.3 µM (inactive); with SW-620, 17.7 µM (inactive); in the experiment on NCI-H460, 14.9 µM (inactive). Further, the GI50 in the experiment on LOX IMVI was 17 µM (inactive); with HCT-15, 13.7 µM; in the experiment on RPMI-8226, 10.8 µM (inactive); in the experiment with NCI/ADR-RES, 14.3 µM (inactive); in the experiment on SK-MEL-5, 15.6 µM (inactive); with RXF 393, 15.9 µM (inactive). For the same compound, the GI50 was 16.1 µM (inactive) with IGROV-1; 14.5 µM (inactive) in the experiment on MDA-MB-231; 16.6 µM (inactive) in the experiment with UO-31; 18.1 µM (inactive) with K562; 19.1 µM (inactive) in the experiment on A498; 11.5 µM (inactive) in the experiment with OVCAR-5. Besides, the GI50 in the experiment with MCF7 is 15.9 µM (inactive).
With `Oc1ccc(Cl)cc1C1=NC(NCN2CCN(CNC3=NC(c4ccccc4)CC(c4cc(Cl)ccc4O)=N3)CC2)=NC(c2ccccc2)C1` (stereo not given), the GI50 is 32.7 µM (inactive) with SF-268; 36.1 µM (inactive) with A549; 43 µM (inactive) in the experiment on SK-MEL-2; 39.7 µM (inactive) with PC-3; 33.1 µM (inactive) in the experiment on SW-620; 35.2 µM (inactive) with NCI-H460. The GI50 in the experiment with LOX IMVI was 40.6 µM (inactive); in the experiment with HCT-15, 24.4 µM; in the experiment on RPMI-8226 it was 18.4 µM (inactive); in the experiment with NCI/ADR-RES, 38.4 µM (inactive); in the experiment on SK-MEL-5, 93.5 µM (inactive); with RXF 393 it was 22 µM (inactive). Besides, the GI50 with IGROV-1 was 34.4 µM (inactive); with MDA-MB-231, > 100 µM (inactive); with UO-31 it was 37.3 µM (inactive); in the experiment with K562 it was 36.2 µM (inactive); in the experiment on A498, 47.8 µM (inactive); in the experiment on OVCAR-5, 50.9 µM (inactive). Also, the GI50 in the experiment on MCF7 is 9.08 µM (inactive).
On to `Cc1c2c(c(C)n1-c1ccccc1)C(=O)N(CCCCN1CCN(c3ccccc3)CC1)C2=O`, for which the GI50 was 37.8 µM (inactive) with SF-268; 14.5 µM (inactive) in the experiment with A549; 22.3 µM (inactive) in the experiment on SK-MEL-2; 6.82 µM (inactive) with PC-3; 18.9 µM (inactive) with SW-620; 11.7 µM (inactive) with NCI-H460. Also, the GI50 in the experiment on LOX IMVI was 10 µM (inactive); in the experiment with HCT-15, 7.74 µM; in the experiment on RPMI-8226 it was 7.52 µM (inactive); in the experiment with NCI/ADR-RES, 17 µM (inactive); with SK-MEL-5, 3.7 µM (inactive); in the experiment on RXF 393, 14.5 µM (inactive). The GI50 was 15.1 µM (inactive) in the experiment on IGROV-1; 10 µM (inactive) in the experiment on MDA-MB-231; 4.17 µM (inactive) with UO-31; 4.22 µM (inactive) with K562; 26.1 µM (inactive) in the experiment with A498; 49.3 µM (inactive) in the experiment with OVCAR-5. The GI50 with MCF7 was 9.42 µM (inactive).
As for `O=C(OC1OC2COC(=O)c3cc(O)c(O)c(O)c3-c3c(cc(O)c(O)c3O)C(=O)OC3C2OC(=O)[C@@]24CC(=O)[C@@](O)(OC25C(=O)O[C@H]2[C@@H](O)CO[C@@]25O)C2(O)Oc5c(O)c(O)cc(c5C24)C(=O)OC13)c1cc(O)c(O)c(O)c1` (stereo not given in full), the GI50 with SF-268 is 58.6 µM (inactive); in the experiment with A549 it was 27.7 µM (inactive); with SK-MEL-2, > 100 µM (inactive); in the experiment with PC-3, 42.3 µM (inactive); with SW-620 it was 41.2 µM (inactive); in the experiment with NCI-H460, 40.9 µM (inactive). Besides, the GI50 is 12.6 µM (inactive) with LOX IMVI; 22.9 µM in the experiment with HCT-15; 99.5 µM (inactive) in the experiment on RPMI-8226; 29.2 µM (inactive) in the experiment with NCI/ADR-RES; 42.7 µM (inactive) in the experiment on SK-MEL-5; > 100 µM (inactive) in the experiment with RXF 393. In addition, the GI50 is 75.9 µM (inactive) with IGROV-1; 0.857 µM (active) in the experiment with MDA-MB-231; 34.8 µM (inactive) in the experiment on UO-31; 30.1 µM (inactive) with K562; 9.12 µM (inactive) in the experiment on A498; 47.2 µM (inactive) in the experiment with OVCAR-5. For the same compound, the GI50 with MCF7 was 13.6 µM (inactive).
For `CC(=C/C=C/C=C(C)\C=C\C=C(\C)C(=O)O)/C=C/C=C(/C)C(=O)O`, the GI50 in the experiment on SF-268, in the experiment on A549, in the experiment on SK-MEL-2, with PC-3, with SW-620 and with NCI-H460 was > 100 µM (inactive) each time. Besides, the GI50 with LOX IMVI is > 100 µM (inactive); with HCT-15, over 100 µM; with RPMI-8226 it was > 100 µM (inactive); with NCI/ADR-RES, > 100 µM (inactive); in the experiment on SK-MEL-5, > 100 µM (inactive); in the experiment on RXF 393 it was > 100 µM (inactive). Also, the GI50 in the experiment with IGROV-1, in the experiment on MDA-MB-231, in the experiment on UO-31, in the experiment with K562, with A498 and with OVCAR-5 was > 100 µM (inactive) throughout. The GI50 in the experiment with MCF7 is > 100 µM (inactive).
As to `CN1CCC/C1=C1/C(=O)N(c2ccccc2)N=C1c1ccc[nH]1`, the GI50 in the experiment with SF-268, with A549, in the experiment on SK-MEL-2, in the experiment with PC-3, in the experiment with SW-620 and with NCI-H460 was > 100 µM (inactive) each time. The GI50 with LOX IMVI is > 100 µM (inactive); in the experiment on HCT-15, over 100 µM; with RPMI-8226, > 100 µM (inactive); in the experiment with NCI/ADR-RES, > 100 µM (inactive); in the experiment on SK-MEL-5, > 100 µM (inactive); with RXF 393 it was > 100 µM (inactive). The GI50 in the experiment with IGROV-1, with MDA-MB-231, in the experiment with UO-31, in the experiment with K562, with A498 and with OVCAR-5 was > 100 µM (inactive) each time. The GI50 in the experiment with MCF7 is > 100 µM (inactive).
For `CC(=O)C1=C(C)N(c2ccccc2)C2(O)C=CC(O)=C3C(=O)c4ccccc4C(=O)C312` (stereo not given), the GI50 was 20.2 µM (inactive) with SF-268; 15.3 µM (inactive) with A549; 15.3 µM (inactive) in the experiment on SK-MEL-2; 17.8 µM (inactive) in the experiment on PC-3; 7.64 µM (inactive) with SW-620; 8.87 µM (inactive) in the experiment with NCI-H460. For the same compound, the GI50 is 4.94 µM (inactive) in the experiment with LOX IMVI; 6.47 µM in the experiment on HCT-15; 3.37 µM (inactive) with RPMI-8226; 3.36 µM (inactive) in the experiment on NCI/ADR-RES; 10.6 µM (inactive) in the experiment with SK-MEL-5; 11.6 µM (inactive) with RXF 393. The GI50 was 8.91 µM (inactive) in the experiment on IGROV-1; 17.7 µM (inactive) in the experiment with MDA-MB-231; 16.3 µM (inactive) in the experiment on UO-31; 8.13 µM (inactive) in the experiment with K562; 23 µM (inactive) with A498; 15.8 µM (inactive) in the experiment with OVCAR-5. Also, in the experiment with MCF7, the GI50 was 22.3 µM (inactive).
For `C1=CN2C[n+]3cccc(OCc4ccccc4)c3N=C2C(OCc2ccccc2)=C1`, the GI50 in the experiment on SF-268 is 6.25 µM (inactive); with A549, 19.5 µM (inactive); in the experiment with SK-MEL-2 it was 11.7 µM (inactive); with PC-3, 26.5 µM (inactive); in the experiment with SW-620 it was 11.9 µM (inactive); in the experiment with NCI-H460 it was 32.6 µM (inactive). Also, the GI50 in the experiment on LOX IMVI is 20.8 µM (inactive); in the experiment with HCT-15, over 100 µM; with RPMI-8226 it was 2.84 µM (inactive); with NCI/ADR-RES, > 100 µM (inactive); with SK-MEL-5, 5 µM (inactive); in the experiment with RXF 393, 44.9 µM (inactive). The GI50 in the experiment on IGROV-1 is 11.5 µM (inactive); in the experiment on MDA-MB-231, 16.8 µM (inactive); with UO-31, > 100 µM (inactive); in the experiment with K562, < 0.01 µM (active); in the experiment with A498, 85.9 µM (inactive); with OVCAR-5, 52 µM (inactive). The GI50 in the experiment on MCF7 was 13.5 µM (inactive).
Turning to `Cc1ccc(Nc2cc(=O)[nH]c(=S)[nH]2)cc1`, the GI50 in the experiment on SF-268, with A549, with SK-MEL-2, with PC-3, with SW-620 and with NCI-H460 was > 100 µM (inactive) each time. Further, the GI50 is > 100 µM (inactive) in the experiment on LOX IMVI; over 100 µM with HCT-15; > 100 µM (inactive) in the experiment with RPMI-8226; > 100 µM (inactive) in the experiment with NCI/ADR-RES; > 100 µM (inactive) in the experiment on SK-MEL-5; > 100 µM (inactive) in the experiment with RXF 393. For the same compound, the GI50 in the experiment on IGROV-1, in the experiment with MDA-MB-231, in the experiment on UO-31, in the experiment with K562, in the experiment with A498 and in the experiment on OVCAR-5 was > 100 µM (inactive) each time. The GI50 with MCF7 was > 100 µM (inactive).

In general, GI50 refers to the concentration at which growth is held to half of that of the control.

Values taken from ChEMBL document CHEMBL1201862, “PubChem BioAssay data set” (2004).
